Values quoted from earlier work as cited in patent US20120171239A1, “Immunogenic Conjugates for Producing Immune Responses to Drugs of Abuse and Methods of Use” (priority 2009, published 2012).

Tested on: D2
Settings: i.v. injection of 1.0 mg/kg cocaine, PET

For `COC(=O)[C@H]1[C@@H](OC(=O)c2ccccc2)C[C@@H]2CC[C@H]1N2C` [cocaine], the “reduction of FCP uptake” value is listed as no more than 40%.
